Results published in patent US11427575B2, “Antitumor compound for activating JWA gene and degrading HER2, preparation method thereof, and application thereof” (SIMCERE PHARMACEUTICAL CO., LTD., priority 2019, dated 2022).

Assays:
JWA protein [1] = experiment: Laser confocal immunofluorescence in HER2-positive breast cancer cells, JWA; format: cell-based, human; details: immunofluorescence, 0, 1, 10 μM, 24 h
Description: The cells were inoculated into a 35 mm glass bottom dish, treated with different concentrations (0, 1, and 10 μM) of JAC1 for 24 h, fixed with methanol for 15 min, washed three times with PBST, blocked with normal sheep serum for 1 h, and incubated in primary antibody overnight at 4° C. The cells were then washed three times with PBST, incubated in fluorescent secondary antibody and 4′,6-diamidino-2-phenylindole (DAPI), and photographed using a laser confocal scanning microscopy.

JWA protein [2] = experiment: Western blot in HER2-positive breast cancer cells, JWA; format: cell-based, human; details: increasing concentration, 24 h
Description: (§1) The cells in the logarithmic growth phase were routinely digested, and transferred into 6-well plates at the cell density of 40%-50%. The cells were incubated with different concentrations of JAC1 for 24 h, followed by an addition of 0.1 mL of Radioimmunoprecipitation Assay Butter (RIPA, containing 0.5% phenylmethylsulfonyl fluoride (PMSF)) for protein extraction. After centrifugation at 12,000×g for 15 min, the supernatant was collected, and brought to a determination of protein concentration and a boil. Protein electrophoresis was performed with 10% polyacrylamide gel. The protein was transferred into the gel wells for 40 μg protein per well, migrated at 60 V for 30 min, and 90 V for 1.5-2 h. After gel electrophoresis, the protein was transferred by wet method from gel to a PVDF membrane, and blocked with 5% skim milk at room temperature for 1-2 h. The membrane was washed with Tris-Buffered Saline and Tween 20 (TBST, containing 0.1% Tween 20) three times for 5 min each, and incubated in the corresponding primary antibody overnight at 4° C. The membrane was then washed with the TBST (containing 0.1% Tween 20) three times for 5 min each, incubated in the secondary antibody at room temperature for 1-2 h, and washed with the TBST (containing 0.1% Tween 20) eight times for 5 min each. […]

HER2 protein [3] = experiment: Western blot in HER2-positive breast cancer cells, HER2; format: cell-based, human; details: increasing concentration, 24 h
Description: as §1

BT474 cells = details: BT474, Transwell, 0, 1, and 10 μL of JAC1, 12 h
Description: (§2) BT474 and SKBR3 cells in the logarithmic growth phase were transferred into six-well plates at the cell density of 40%-50%. After the cells adhered to the walls of the plates, the cells were respectively incubated in […] of JAC1. Spreading gel in Transwell chamber: the day before the assay, a 24-well plate and a plurality of Transwell chambers were prepared, and 1 mg/mL fibronectin (FN) mother liquor was diluted 10 times to a final concentration of 100 μg/mL. The bottom of each Transwell chamber was coated with 50 μL of FN, placed on a clean bench to air-dry for 2 h, and cultured in an incubator overnight.
(§3) On the day of the assay, the cultured cells were digested with 0.25% trypsin and resuspended in a serum-free medium in which the number of the cells were counted and the cell density was adjusted to 3×10^5 cells/mL. 100 μL of serum-free medium containing the cells was transferred onto the upper layer of each Transwell chamber, and 600 μL of mixture containing 10% FBS and 100 ng/mL EGF medium was added to the lower layer of each Transwell chamber. After incubation in an incubator for 12 h, the Transwell chambers were taken out, fixed with 95% methanol for 20 min, washed three times with phosphate-buffered saline (PBS), stained with crystal violet dye for 30 min, and washed three times with PBS. […]

SKBR3 cells = details: SKBR3, Transwell, 0, 1, and 10 μL of JAC1, 12 h
Description: as §2, §3

[4] = test system: BT474 human breast cancer cells; experiment: Tumor growth in nude mice subcutaneously transplanted with BT474 cells; format: in vivo, BALB/c nude mice; details: for tumor growth (tumor volume): vs blank control; for tumor weight / tumor weight/mouse body weight ratio: P<0.05
Description: (§4) BT474 human breast cancer cells in the logarithmic growth phase were suspended in ice-cold suspension buffer for a final concentration of 5×10^6/100 μL, followed by subcutaneous transplantations of the suspended cells into BALB/c nude mice. When the tumor grown up to 75-125 mm^3, the BALB/c nude mice were randomly divided into five equal groups, including a blank control group (Mock), a solvent control group (Vehicle), a 50 mg/kg JAC1 treatment group, a 100 mg/kg JAC1 treatment group, and a positive control group treated with Pacilitaxel and Trastuzumab (TH). Dose and administration: JAC1 was injected intraperitoneally into mice once daily; the dosage of Trastuzumab was 10 mg/kg injected intraperitoneally twice a week; the dosage of Pacilitaxel was 20 mg/kg injected intraperitoneally once a week. From the day of administration, mouse body weights and tumor diameters were measured every other 2 days, and the tumor volume was calculated using an equation. When the mice reached a humane endpoint at which the tumor volume increased to 2500-3000 mm^3, the research based on the mouse models was terminated and the laboratory mice were anesthetized and euthanized in a timely manner to alleviate animal suffering and perform the statistical analysis.

JWA protein [5] = experiment: Western blot of subcutaneous BT474 tumors, JWA; format: in vivo, BALB/c nude mice; details: treatment group
Description: BT474 human breast cancer cells in the logarithmic growth phase were suspended in ice-cold suspension buffer for a final concentration of 5×10^6/100 μL, followed by subcutaneous transplantations of the suspended cells into BALB/c nude mice. When the tumor grown up to 75-125 mm^3, the BALB/c nude mice were randomly divided into five equal groups, including a blank control group (Mock), a solvent control group (Vehicle), a 50 mg/kg JAC1 treatment group, a 100 mg/kg JAC1 treatment group, and a positive control group treated with Pacilitaxel and Trastuzumab (TH). Dose and administration: JAC1 was injected intraperitoneally into mice once daily; the dosage of Trastuzumab was 10 mg/kg injected intraperitoneally twice a week; the dosage of Pacilitaxel was 20 mg/kg injected intraperitoneally once a week. From the day of administration, mouse body weights and tumor diameters were measured every other 2 days, and the tumor volume was calculated using an equation. When the mice reached a humane endpoint at which the tumor volume increased to 2500-3000 mm^3, the research based on the mouse models was terminated and the laboratory mice were anesthetized and euthanized in a timely manner to alleviate animal suffering and perform the statistical analysis. […]

HER2 protein [6] = experiment: Western blot of subcutaneous BT474 tumors, HER2; format: in vivo, BALB/c nude mice; details: treatment group
Description: as §4, with “analysis. […]” for “analysis.”

[7] = H&E staining, tumor-bearing nude mice
Description: A model of nude mice subcutaneously transplanted with human breast cancer cells was built with reference to the method of Example 16. The laboratory mice that have been modeled were anesthetized and euthanized to observe and determine whether damage occurred to the major organs of laboratory mice. The major organs tissues from the laboratory mice, such as heart, liver, spleen, lung, kidney, and brain, were fixed in formalin solution using conventional methods. After paraffin embedding and tissue sectioning, the thick tissue sections were stained with H&E to observe whether the organ tissues were normal in morphology.

[8] = Serum biochemical indexes in tumor-bearing nude mice; details: particularly 100 mg/kg, vs blank control
Description: A model of nude mice subcutaneously transplanted with human breast cancer cells was built with reference to the method of Example 16. The laboratory mice that have been modeled were anesthetized to determine whether damage occurred to the major organs in the mouse body. Whole blood was collected from the anesthetized mice, and the serum was separated and used to detect a change in the serum biochemical indexes using an automatic biochemistry analyzer.

For `COc1cccc2sc(Nc3nc4c(F)cccc4s3)nc12` [JAC1, 4-fluoro-N-(4-methoxybenzene (d)thiazole-2-group) benzene (d) thiazole-2-amine], the JWA protein level (JWA protein [1]) was “JWA protein level increased”, the JWA protein level (JWA protein [2]) was “JWA protein level increased” and the HER2 protein level (HER2 protein [3]) was “HER2 protein level decreases”. The migratory ability (BT474 cells) was “effectively inhibit the migratory ability”, the migratory ability (SKBR3 cells) was “effectively inhibit the migratory ability” and the “tumor growth (tumor volume)” value ([4]; 50 mg/kg intraperitoneally once daily) was “obvious results at suppressing tumor growth”. For the same molecule, the “Tumor growth inhibition rate” value ([4]; 50 mg/kg ip once daily) was 31.22%, the tumor weight ([4]; 50 mg/kg ip once daily) was “reduced” and the “tumor weight/mouse body weight ratio” value ([4]; 50 mg/kg ip once daily) was “decreased”. The “tumor growth (tumor volume)” value ([4]; 100 mg/kg intraperitoneally once daily) was “obvious results at suppressing tumor growth”, the “Tumor growth inhibition rate” value ([4]; 100 mg/kg ip once daily) was 46.21% and the tumor weight ([4]; 100 mg/kg ip once daily) was “reduced”. The “tumor weight/mouse body weight ratio” value ([4]; 100 mg/kg ip once daily) was “decreased”, the “JWA protein level in tumor” value (JWA protein [5]) was “significantly increased” and the “HER2 protein level in tumor” value (HER2 protein [6]) was “repressed significantly”. For the same molecule, the “morphology of major organs (heart, liver, spleen, lung, kidney, brain)” value [7] was “no obvious anomalies were observed”, the “alanine transaminase (ALT)” value [8] was “significant decreases” and the “aspartate transaminase (AST)” value [8] was “significant decreases”. For the same molecule, the “creatine kinase (CK)” value [8] was “significant decreases”, the “creatine kinase isoenzyme (CKMB)” value [8] was “significant decreases” and the “superoxide dismutase (SOD)” value [8] was “significantly increased”. For the same molecule, the “triglyceride (TG)” value [8] was “significant decreases”.
